Data published in PMC11396514, “Synthesis and Biological Evaluation of Novel Piperidine-3-Carboxamide Derivatives as Anti-Osteoporosis Agents Targeting Cathepsin K” (Molecules, 2024).

Experiments:
Recombinant human Cat K = target: T1, Recombinant human Cat K (Homo sapiens, UniProt P43235); experiment: In vitro enzymatic assay of Cat K inhibition (Z-Phe-Arg-AMC fluorescence); format: biochemical; details: pH 6.0, substrate Z-Phe-Arg-AMC, read-out: Cat K IC50 (µM) ± SD
T1 sequence (P43235 115-329): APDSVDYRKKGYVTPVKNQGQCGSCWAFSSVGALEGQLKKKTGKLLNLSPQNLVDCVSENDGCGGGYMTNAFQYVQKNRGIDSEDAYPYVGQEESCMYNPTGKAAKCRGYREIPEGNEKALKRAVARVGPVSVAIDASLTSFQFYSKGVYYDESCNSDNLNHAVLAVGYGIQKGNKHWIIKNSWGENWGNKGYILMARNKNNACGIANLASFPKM
Protocol: Compounds were tested at eight concentrations (100–0.001 µM). Recombinant human Cat K (5.5 ng/mL) in reaction buffer (50 µL) containing sodium acetate (50 mM), EDTA (2.5 mM), and DTT (1 mM) was added to a 96-well plate containing the test compounds at pH 6.0. The plate was incubated at 37 °C for 15 min, and the fluorescence (F1) was measured at 355 nm excitation and 460 nm emission using a microplate reader (Wallac 1420 Victor2, Norwalk, CA, USA). Subsequently, Z-Phe-Arg-AMC (20 µL, 10 µM) was added, and the plate was incubated at 37 °C for 1 h. Fluorescence (F2) was measured again at 355 nm excitation and 460 nm emission. The inhibition rate was calculated using the formula: inhibition (%) = [control (F2 − F1) − sample (F2–F1)]/[control (F2 − F1) − blank (F2 − F1)] × 100%. IC50 values were calculated using the SPSS 17.0 software.

[1] = system: RANKL-induced RAW264.7 cells; experiment: In vitro anti-bone resorption assay: CTX-I released into culture medium (ELISA), cells on bovine femur slices; format: cell-based; details: compound 1 µM, 5 days; for CTX-I concentration compared to the model group (in words): vs untreated model group
Description: (§1) Type I collagen, the predominant structural protein in bone, constitutes approximately 90% of the bone matrix protein [22]. During bone renewal, type I collagen is degraded, releasing short peptide fragments such as the C-terminal peptide of type I collagen (CTX-I) into the bloodstream. The concentration of CTX-I in the patient’s blood serves as a crucial biomarker for evaluating the degree of osteoporosis. In vitro, bone resorption can be assessed by measuring the concentration of CTX-I using a model in which osteoclasts are cultured on bone slices. In this experiment, the in vitro anti-bone resorption activities of the test compounds were evaluated in RANKL-induced RAW264.7 cells. This evaluation was based on the concentration of CTX-I released into the cell culture medium due to bone degradation, as well as the area of bone resorption pits formed on bone slices.
(§2) RAW264.7 cells, obtained from the cell bank of the Chinese Academy of Medical Sciences, were seeded into 96-well plates at a density of 1 × 10^5 cells per well with bovine femur slices. To induce cell differentiation, 50 ng mL^−1 of RANKL was added to the RAW264.7 cells. The cells were cultured for 5 days at 37 °C under 5% CO2 with the test compounds at a concentration of 1 µM. The culture supernatant was collected to measure the CTX-I concentration using ELISA. The bone slices were fixed with 2.5% glutaraldehyde for 7 min, then washed 3 times with 0.25 mol/L ammonium hydroxide, dehydrated using a series of ethanol solutions (40%, 75%, 80%, 95%, and anhydrous ethanol), and dried naturally. After staining with 1% toluidine blue solution at room temperature for 3–4 min, the bone slices were rinsed with distilled water and analyzed using an optical microscope. Bone resorption areas were calculated using image analysis software (iBright CL1500, Redmond, WA, USA).

[2] = system: RANKL-induced RAW264.7 cells; experiment: In vitro anti-bone resorption assay: area of bone resorption pits on bone slices (toluidine blue); format: cell-based; details: compound 1 µM, 5 days, compared with MIV-711 / model group
Description: as §1, §2

Row | Structure (SMILES) | IC50 (Recombinant human Cat K) | melting point | CTX-I concentration compared to the model group (in words) [1] | Anti-bone resorption activity by area of bone resorption pits (in words) [2] | CTX-I concentration in the cell culture medium ([1]; ELISA)
1 | COc1ccc(S(=O)(=O)N2CCC[C@@H](C(=O)NCc3cccc(C)c3)C2)cc1 [Compound H-2, (R)-1-((4-methoxyphenyl)sulfonyl)-N-(3-methylbenzyl)piperidine-3-carboxamide] | 4.76 ± 0.71 µM | 189.8 to 190.1 °C | – | – | –
2 | COc1ccc(S(=O)(=O)N2CCC[C@@H](C(=O)NCc3ccc(C)cc3)C2)cc1 [Compound H-3, (R)-1-((4-methoxyphenyl)sulfonyl)-N-(4-methylbenzyl)piperidine-3-carboxamide] | 4.39 ± 0.65 µM | 182.3 to 182.7 °C | – | – | –
3 | COc1ccc(S(=O)(=O)N2CCC[C@@H](C(=O)NCc3ccccc3OC)C2)cc1 [Compound H-4, (R)-N-(2-methoxybenzyl)-1-((4-methoxyphenyl)sulfonyl)piperidine-3-carboxamide] | 2.48 ± 0.37 µM | 143.7 to 144.2 °C | – | – | –
4 | COc1ccc(CNC(=O)[C@@H]2CCCN(S(=O)(=O)c3ccc(OC)cc3)C2)cc1 [Compound H-6, (R)-N-(4-methoxybenzyl)-1-((4-methoxyphenyl)sulfonyl)piperidine-3-carboxamide] | 3.64 ± 0.39 µM | 139.4 to 140.9 °C | – | – | –
5 | COc1ccc(CNC(=O)[C@@H]2CCCN(S(=O)(=O)c3cccc(Br)c3)C2)cc1 [Compound H-14, (R)-1-((3-bromophenyl)sulfonyl)-N-(4-methoxybenzyl)piperidine-3-carboxamide] | 0.91 ± 0.15 µM | 203.5 to 204.2 °C | – | – | –
6 | COc1ccc(CNC(=O)[C@@H]2CCCN(S(=O)(=O)c3ccccc3Cl)C2)cc1 [Compound H-16, (R)-1-((2-chlorophenyl)sulfonyl)-N-(4-methoxybenzyl)piperidine-3-carboxamide] | 2.03 ± 0.43 µM | 162.3 to 164.5 °C | reduced CTX-I concentration | – | –
7 | COc1ccc(CNC(=O)[C@@H]2CCCN(S(=O)(=O)c3cccc(Cl)c3)C2)cc1 [Compound H-17, (R)-1-((3-chlorophenyl)sulfonyl)-N-(4-methoxybenzyl)piperidine-3-carboxamide] | 0.47 ± 0.12 µM | 117.1 to 119.9 °C | reduced CTX-I concentration | comparable to that of MIV-711 | –
8 | COc1ccc(CNC(=O)[C@@H]2CCCN(S(=O)(=O)c3cccc(C)c3)C2)cc1 [Compound H-20, (R)-N-(4-methoxybenzyl)-1-(m-tolylsulfonyl)piperidine-3-carboxamide] | 3.82 ± 0.91 µM | 152.6 to 154.2 °C | – | – | –
9 | COc1ccc(CNC(=O)[C@@H]2CCCN(S(=O)(=O)c3ccc(C)cc3)C2)cc1 [Compound H-21, (R)-N-(4-methoxybenzyl)-1-tosylpiperidine-3-carboxamide] | 3.65 ± 0.86 µM | 162.9 to 163.7 °C | – | – | –
10 | C#C[C@@H]1CN(C(=O)[C@H](CC(C)C)NC(=O)c2ccc(-c3nc(N4CCN(C)CC4)sc3F)cc2)[C@@H]2C(=O)CO[C@H]12 [MIV-711, reference compound] | 0.09 ± 0.02 µM | – | – | – | 21.73 ± 3.18 nM

Second part, led by results:

Row | IC50 (Recombinant human Cat K) | melting point | Structure (SMILES) | CTX-I concentration compared to the model group (in words) [1] | Anti-bone resorption activity by area of bone resorption pits (in words) [2] | CTX-I concentration in the cell culture medium ([1]; ELISA)
11 | 13.5 ± 2.16 µM | – | COc1ccc(S(=O)(=O)N2CCC[C@@H](C(C)=O)C2)cc1 [Compound F-12] | – | – | –
12 | 3.52 ± 0.44 µM | 170.4 to 171.4 °C | COc1ccc(S(=O)(=O)N2CCC[C@@H](C(=O)NCc3ccccc3C)C2)cc1 [Compound H-1, (R)-1-((4-methoxyphenyl)sulfonyl)-N-(2-methylbenzyl)piperidine-3-carboxamide] | – | – | –
13 | 2.93 ± 0.4 µM | 130.2 to 131.2 °C | COc1ccc(S(=O)(=O)N2CCC[C@@H](C(=O)NCc3cccc(OC)c3)C2)cc1 [Compound H-5, (R)-N-(3-methoxybenzyl)-1-((4-methoxyphenyl)sulfonyl)piperidine-3-carboxamide] | – | – | –
14 | 1.06 ± 0.18 µM | 192.3 to 193.6 °C | COc1ccc(S(=O)(=O)N2CCC[C@@H](C(=O)NCc3ccccc3Cl)C2)cc1 [Compound H-7, (R)-N-(2-chlorobenzyl)-1-((4-methoxyphenyl)sulfonyl)piperidine-3-carboxamide] | – | – | –
15 | 0.45 ± 0.11 µM | 146.1 to 148.7 °C | COc1ccc(S(=O)(=O)N2CCC[C@@H](C(=O)NCc3cccc(Cl)c3)C2)cc1 [Compound H-8, (R)-N-(3-chlorobenzyl)-1-((4-methoxyphenyl)sulfonyl)piperidine-3-carboxamide] | reduced CTX-I concentration | – | –
16 | 2.18 ± 0.39 µM | 153.7 to 154.5 °C | COc1ccc(S(=O)(=O)N2CCC[C@@H](C(=O)NCc3ccccc3Br)C2)cc1 [Compound H-10, (R)-N-(2-bromobenzyl)-1-((4-methoxyphenyl)sulfonyl)piperidine-3-carboxamide] | – | – | –
17 | 0.66 ± 0.2 µM | 124.7 to 126.5 °C | COc1ccc(S(=O)(=O)N2CCC[C@@H](C(=O)NCc3cccc(Br)c3)C2)cc1 [Compound H-11, (R)-N-(3-bromobenzyl)-1-((4-methoxyphenyl)sulfonyl)piperidine-3-carboxamide] | reduced CTX-I concentration | – | –
18 | 0.22 ± 0.05 µM | 148.1 to 149.3 °C | COc1ccc(S(=O)(=O)N2CCC[C@@H](C(=O)NCc3ccc(Br)cc3)C2)cc1 [Compound H-12, (R)-N-(4-bromobenzyl)-1-((4-methoxyphenyl)sulfonyl)piperidine-3-carboxamide] | reduced CTX-I concentration | comparable to that of MIV-711 | –
19 | 0.74 ± 0.12 µM | 189.5 to 190.5 °C | COc1ccc(CNC(=O)[C@@H]2CCCN(S(=O)(=O)c3ccccc3Br)C2)cc1 [Compound H-13, (R)-1-((2-bromophenyl)sulfonyl)-N-(4-methoxybenzyl)piperidine-3-carboxamide] | reduced CTX-I concentration | – | –
20 | 0.85 ± 0.19 µM | 152.4 to 154.4 °C | COc1ccc(CNC(=O)[C@@H]2CCCN(S(=O)(=O)c3ccc(Br)cc3)C2)cc1 [Compound H-15, (R)-1-((4-bromophenyl)sulfonyl)-N-(4-methoxybenzyl)piperidine-3-carboxamide] | – | – | –
21 | 0.78 ± 0.3 µM | 147 to 148.7 °C | COc1ccc(CNC(=O)[C@@H]2CCCN(S(=O)(=O)c3ccc(Cl)cc3)C2)cc1 [Compound H-18, (R)-1-((4-chlorophenyl)sulfonyl)-N-(4-methoxybenzyl)piperidine-3-carboxamide] | – | – | –
22 | 5.33 ± 0.94 µM | 108.3 to 109.4 °C | COc1ccc(CNC(=O)[C@@H]2CCCN(S(=O)(=O)c3ccccc3C)C2)cc1 [Compound H-19, (R)-N-(4-methoxybenzyl)-1-(o-tolylsulfonyl)piperidine-3-carboxamide] | – | – | –
